Reference: paper PMC5511861, “DS16570511 is a small-molecule inhibitor of the mitochondrial calcium uniporter” (Cell Death Discovery, 2017)
pIC50: −log10 of the molar value.

Columns and labels:
[1] = tested on: serum-induced cytosolic Ca2+ increase in HEK293A cells; assay: Counter assay: serum-induced cytosolic Ca2+ increase in HEK293A cells expressing aequorin in cytosol; type: cell-based, human; details: read-out: concentration used to decrease the serum-induced cytosolic Ca2+ increase by 50%
Procedure: In the first screening using the cell-based assay, application of 10% fetal bovine serum to the cells triggered a rapid increase of mitochondrial Ca^2+ level (Figure 1a). Pretreatment of the cells with DS16570511 inhibited the serum-induced mitochondrial Ca^2+ influx with an IC50 of 7 μM (Figures 1a and b). In order to eliminate broad channel inhibitors or chemicals affecting the aequorin-based detection system, a counter assay was carried out using HEK293A cells expressing aequorin in cytosol. In the assay, the concentration of DS16570511 used to decrease the serum-induced cytosolic Ca^2+ increase by 50% was ~50 μM.
For dynamic measurements of mitochondrial Ca^2+ levels in intact cells, HEK293A cells were stably transfected with pIRES-puro vector expressing mitochondria-targeted aequorin.[20] One day after plating on a 15-cm dish (8×10^6 cells/dish), the cells were harvested and incubated with 2.5 μM coelenterazine h in aequorin assay buffer (200 mM Hanks Balanced Salt Solution, 25 mM HEPES (pH 7.0) and 0.1% bovine serum albumin) for 2 h at room temperature. The cells (8.1×10^4 cells/well) were then treated with DS16570511 for 20 min in a 96-well plate at room temperature. For induction of intracellular Ca^2+, the cells were treated with 10% fetal bovine serum, and luminescence levels were measured by using a Centro LB960 luminometer (Berthold Technologies, Oak Ridge, TN, USA).

[2] = tested on: Ca2+ uptake of rat heart mitochondria; assay: Ca2+ uptake assay using isolated rat heart mitochondria (atomic absorbance spectrometer); type: biochemical; details: 100 μM CaCl2; read-out: IC50, inhibition of Ca2+ uptake of rat heart mitochondria
Procedure: We then asked whether DS16570511 inhibits Ca^2+ uptake in isolated mitochondria from animal heart. An atomic absorbance spectrometer-based detection method was employed to analyze intramitochondrial Ca^2+ levels. We prepared freshly isolated mitochondria from pig heart, and the mitochondria were incubated with 100 μM CaCl2.
Figure 3 DS16570511 inhibits Ca^2+ uptake in isolated heart mitochondria. (a) Effect of RuR on Ca^2+ uptake of pig heart mitochondria. […] Data are mean with S.E.M. from three independent samples. (b) Inhibition rate of RuR or DS16570511 on Ca^2+ uptake of pig heart mitochondria. Inhibition 0 or 100% is defined as a value of Ca^2+-untreated mitochondria or Ca^2+-treated mitochondria, respectively. Data are mean with S.E.M. from three independent samples. (c) Inhibition rate of RuR or DS16570511 on Ca^2+ uptake of rat heart mitochondria. Data are mean with S.E.M./variation from three or two independent samples for DS16570511 or RuR, respectively.
Mitochondria were isolated by using the mitochondria isolation kit and then dissolved in the swelling buffer. The protein concentration of the mitochondrial solution was 5 mg/ml. […] The solution was then diluted by water, and Ca^2+ concentration of the solution was measured by atomic absorbance spectrometer (Hitachi High-Technologies Corporation, Z-2710, Tokyo, Japan).

MCU = molecular target: T1, MCU (Homo sapiens, UniProt Q8NE86); assay: MCU-dependent mitochondrial Ca2+ influx in HEK293A cells overexpressing human MCU; type: cell-based; details: pretreatment
T1 construct: expressed in transfected cells; host or cells: HEK293A cells, transient co-transfection with the mitochondria-targeted aequorin vector
T1 sequence (Q8NE86 51-351): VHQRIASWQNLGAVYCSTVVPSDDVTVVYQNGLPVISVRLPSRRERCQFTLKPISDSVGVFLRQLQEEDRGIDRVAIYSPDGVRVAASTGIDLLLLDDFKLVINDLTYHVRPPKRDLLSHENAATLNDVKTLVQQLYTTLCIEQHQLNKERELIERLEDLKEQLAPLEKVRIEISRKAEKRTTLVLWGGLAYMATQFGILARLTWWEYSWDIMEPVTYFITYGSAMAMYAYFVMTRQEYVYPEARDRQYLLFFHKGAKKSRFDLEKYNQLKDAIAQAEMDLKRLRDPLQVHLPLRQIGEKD
T1 sequence (Q9H4I9 48-107 partner limits assumed): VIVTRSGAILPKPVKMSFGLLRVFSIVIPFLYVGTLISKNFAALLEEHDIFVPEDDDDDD
Excerpt: Next, to investigate the molecular component of the mitochondrial calcium uniporter, MCU-dependent and MICU-dependent Ca^2+ influx were examined. […] The MCU-dependent increment of Ca^2+ influx was blocked by the DS16570511 pretreatment (Figure 5b). We then investigated the effects of the inhibitor on the regulatory subunit MICU1. Previous studies have shown that MICU1 facilitates mitochondrial Ca^2+ uptake through the presence of a high Ca^2+ level.[11],[22]
Figure 5 DS16570511 inhibits mitochondrial Ca^2+ influx by MCU or MICU1. (a) Effect of overexpression of MCU or MICU1 on mitochondrial Ca^2+ influx in HEK293A cells. (b) Effect of DS16570511 on MCU-dependent mitochondrial Ca^2+ uptake in HEK293A cells. (c) Effect of DS16570511 on MICU1-dependent mitochondrial Ca^2+ uptake in HEK293A cells. […]
In order to evaluate mitochondrial Ca^2+ uptake activity by MCU or MICU1, HEK293A cells were transiently transfected with the mitochondria-targeted aequorin vector and pcDNA3.1 vector containing human Mcu (NCBI Reference Sequence: NM_138357.2) or Micu1 (NM_001195518.1). One day after the transfection, the luminescence levels were measured as described above. MCU- or MICU1-dependent activity was calculated by subtracting the luminescence level of cells transfected with empty vector from that of cells expressing MCU or MICU1, respectively.

Q: What does the source list for `Cc1onc(-c2c(Cl)cccc2Cl)c1CNc1cccc(C(=O)c2cn(CCCC(=O)O)c3ccccc23)c1` [DS16570511]?
A: pIC50 [1]: ~4.30; pIC50 [2]: 4.60; effect on MCU-dependent increment of mitochondrial Ca2+ influx (MCU): blocked
